Some results are limits rather than exact numbers.

Data set [1] has as its system transplanted paddy seedlings. Nature of the data set: Paddy safety, treatment on stem and leaves of transplanted paddy seedlings. It is filed as in vivo. The following applies: 150 g ai/ha, spray on stem and leaves of transplanted paddy seedlings at 4-5-leaves stage. How it is done:
The 5-grade evaluation criteria by visual examination for weeding activity and crop safety (i.e. phytotoxicity) are listed in Table 2.
In pots (diameter of 12 cm) containing test soil, paddy seedlings of the given stage are transplanted and grown in the greenhouse at 20-30° C. After growing to 4-5-leaves stage, the spraying treatment on the stem and leaves of paddy seedlings is conducted in a dosage of 150 g ai/ha after diluting the formulation obtained according to Formulating Example 5 into a given concentration. The visual injury and growth state of the individual plants are observed in regular intervals. The evaluation for the crop safety of the compounds is conducted by 5-grade visual observation.

On to `COc1cc(OC)nc(Oc2ccccc2CNc2ccc(NC(=O)C(F)(F)F)cc2)n1` [Compound I-103], for which, in data set [1], the Effect on tillering result was “None” and the Stunting was 20-25%.

What is called melting point is the temperature of the solid-liquid transition. In the case of `COc1cc(OC)nc(Oc2ccccc2CNc2ccc(C(=O)NC(C)C)cc2)n1` [Compound I-79, i-propyl 4-[2-(4,6-dimethoxy-2-pyrimidinyloxy)-benzylamino]benzamide], the melting point was 83 to 84 °C.

As to `COc1cc(OC)nc(Oc2ccccc2CNc2ccc(NC(=O)C(C)C)cc2)n1` [Compound I-101], in data set [1], the Effect on tillering entry is listed as “None” and the Stunting is reported as <10%.

As for `CCCNC(=O)c1ccc(NCc2ccccc2Oc2nc(OC)cc(OC)n2)cc1` [Compound I-78, n-propyl 4-[2-(4,6-dimethoxy-2-pyrimidinyloxy)-benzylamino]-benzamide], the melting point fell in the range of 96 to 97 °C.

On to `COc1cc(OC)nc(Oc2ccccc2CNc2ccc(NC(=O)c3ccccc3)cc2)n1` [Compound I-102], for which, in data set [1], the Effect on tillering result was “None” and the Stunting is 10-15%.

Source of the values: US6800590B2, “2-Pyrimidinyloxy-n-aryl-benzylamine derivatives,their processes and uses” (Shanghai Institute of Organic Chemistry, priority 2003, dated 2004).
